Source: patent US6337064B1, “Manganese chelates with high relaxivity in serum” (Dibra S.p.A., priority 1998, dated 2002)
Like-named read-outs stand apart in the source and are kept apart here.

Legend:
[1] = Relaxivity in aqueous solution; format: physicochemical; conditions: for Relaxivity r1, aqueous solution: 0.15 M NaCl aqueous solution, 20 MHz, 39° C.; for Relaxivity r1 5 MHz, aqueous solution / Relaxivity r1 10 MHz, aqueous solution: same experimental conditions as Table 1
Description: (§1) The relaxivity of the compounds of the invention was measured both in saline solution and in human serum, reconstituted from Seronorm^(R) Human (Nycomed Pharma), lyophilized human serum, and the resulting data are summarized in TABLES 1 and 2.
(§2) TABLE 1 reports the relativity values measured for some compounds of the invention at 20 MHz; the other experimental conditions used are detailed following the table itself.
(§3) TABLE 2 comprises the results obtained from tests carried out under the same experimental conditions as above and in which r1 and r2 relaxivities were measured in serum and in aqueous solution at lower fields, precisely at 5 and 10 MHz. Said data evidence the significant increase in relaxivity obtained in serum already at 5 MHz and are indicative of the potential advantageous use of the compounds of the invention in M.R.I. diagnostic imaging at low fields.

[2] = Relaxivity in human serum reconstituted from Seronorm Human; format: physicochemical; conditions: for Relaxivity r1 5 MHz, Seronorm / Relaxivity r1 10 MHz, Seronorm: same experimental conditions as Table 1; for Relaxivity r1, Seronorm Human: calculated between 0 and 1 mM, 20 MHz, 39° C.
Description: as §1, §2, §3

[3] = 40° C.; 20 MHz; aqueous solution containing 20 mol % calcium ascorbate and 3 eq. of Na^+; cited from earlier work
[4] = biodistribution study; Investigative Radiology 1994, 29(2), S249-S250; cited from earlier work
[5] = in the presence of calcium and magnesium ions; MRM 1996, 35, 14-19; cited from earlier work

Compound | Relaxivity r1, aqueous solution ([1]; pH 7.3) | Relaxivity r1 5 MHz, aqueous solution [1] | Relaxivity r1 10 MHz, aqueous solution [1] | Relaxivity r1 5 MHz, Seronorm [2] | Relaxivity r1 10 MHz, Seronorm [2] | Relaxivity r1, Seronorm Human [2] | Relaxivity r1, aqueous solution [3] | Stability of the complex in vivo [4] | Stability of the complex in liver homogenate [5] | Relaxivity r1, aqueous solution ([1]; pH 4) | Relaxivity r1, Seronorm Human ([2]; pH 7.0)
C[NH2+]C[C@H](O)[C@@H](O)[C@H](O)[C@H](O)CO.C[NH2+]C[C@H](O)[C@@H](O)[C@H](O)[C@H](O)CO.O=C([O-])CN(CCN(CC(=O)[O-])[C@H](Cc1ccccc1)C(=O)[O-])CC(=O)[O-].[Mn+2] [Example 1, Manganese complex of N-[2-[bis(carboxymethyl)-amino]ethyl]-N-(carboxymethyl)-D-phenylalanine salified with 1-deoxy-1-(methylamino)-D-glucitol (1:2)] | 2.93^6) mM^−1 s^−1 | 4.3 mM⁻¹ s⁻¹ | 3.7 mM⁻¹ s⁻¹ | 11.8 mM⁻¹ s⁻¹ | 12.8 mM⁻¹ s⁻¹ | 15^(7) mM^−1 s^−1 | – | – | – | – | –
C[NH2+]C[C@H](O)[C@@H](O)[C@H](O)[C@H](O)CO.C[NH2+]C[C@H](O)[C@@H](O)[C@H](O)[C@H](O)CO.O=C([O-])CN(CCN(CC(=O)[O-])[C@@H](Cc1ccccc1)C(=O)[O-])[C@@H](Cc1ccccc1)C(=O)[O-].[Mn+2] [Example 2, Manganese complex of [N,N′-1,2-ethanediylbis [N-(carboxymethyl)-L-phenylalanine]] salified with 1-deoxy-1-(methylamino)-D-glucitol (1:2)] | 3.15^(6) mM^−1 s^−1 | 4.5 mM⁻¹ s⁻¹ | 3.9 mM⁻¹ s⁻¹ | 19.9 mM⁻¹ s⁻¹ | 26.1 mM⁻¹ s⁻¹ | 27^(7) mM^−1 s^−1 | – | – | – | – | –
Cc1ncc(COP(=O)(O)O)c(CN(CCN(CC(=O)[O-])Cc2c(COP(=O)(O)O)cnc(C)c2O)CC(=O)[O-])c1O.[Mn+2].[Na].[Na].[Na] [Mn-DPDP] | – | – | – | – | – | – | 2.8^(5) L.mmol^−1.s^−1 | this complex dissociates, releasing manganese which accumulates in liver, pancreas and kidneys | dissociation | – | –
[Cl][Mn][Cl] [MnCl2, reference compound] | – | – | – | – | – | – | – | – | – | 6.59^(2) mM^−1 s^−1 | 53^(3) mM^−1 s^−1
